Measured values reported in US20140378408A1, “NUCLEOSIDE 5'-PHOSPHOROTHIOATE ANALOGUES AND USES THEREOF” (BAR-ILAN UNIVERSITY, an Israeli University, priority 2012, published 2014).
Like-named read-outs stand apart in the source and are kept apart here.

Assays:
[1] = Chemical stability (acid, base, air-oxidation) monitored by 31P-NMR; type: physicochemical; details: for stability: pD=1 as printed, two weeks
Method: In order to study and evaluate the chemical stability of adenosine-5′-tetrathio bisphosphonate and di-adenosine 5′,5″-tetrathiobisphosphonate to basic and acidic condition, as well as to air-oxidation, kinetic measurements were performed by monitoring the changes in the percentage of these amalogues, using ^31P-NMR (FIGS. 16-18).
The evaluation of the stability of adenosine-5′-tetrathio bisphosphonate by ^31P-NMR was first conducted at pD=1.5 for four days. In the course of the experiment, new signals emerged in ^31P-NMR spectra at 104.4, 92.3, 89.2, 86.1, 67.8 ppm and the percentage of starting material was obtained from the ratio of integration between the starting material and the total peaks in the spectrum.
Next, we studied the stability of adenosine-5′-tetrathio bisphosphonate under basic conditions, pD=11. […] After two weeks, the ^31P-NMR spectrum was identical to the starting material, without any indication of decomposition. We associate this with the repulsion between the negative charges of the tetrathio-bisphosphonate moiety in adenosine-5′-tetrathio bisphosphonate and OH^− ions. In addition, intramolecular nucleophilic attack and formation of disulfide bond are less likely to occur under these conditions.
Furthermore, we tested the stability of adenosine-5′-tetrathio bisphosphonate under air-oxidizing conditions, by performing ^31P-NMR measurements in an open rotating NMR tube. […] The MS and ^31P-NMR analysis of the freeze-dried sample of adenosine-5′-tetrathio bisphosphonate after 3 days indicated the formation of an intramolecularly oxidized product.

[2] = tested on: PC12 cells; experiment: Toxicity at PC12 cells (MTT assay); type: cell-based
Method: The results shown are the mean±S.D of three independent experiments in triplicate.
In this study, the toxicity of APCPP-γ-S, at 1-1000 μM, at PC12 cells was tested by MTT assay. […] At 1000 μM, 75% of the cells were still viable.

[3] = ESR OH radical assay, Fe^2+/H2O2 Fenton system; details: N/A = minimal radical production exceeds 10%
[4] = tested on: PC12 cells; experiment: Inhibition of Fe(II)-induced ROS formation in PC12 cells (DCFH-DA); type: cell-based; details: read-out: IC50 inhibition of ROS formation
Method: In this study, nucleoside 5′-phosphorothioate analogues were explored as inhibitors of Fe(II)-induced oxidative stress in PC12 cells used as a neuronal model. Reduction of ROS production in PC12 cells by each one of the tested analogues was measured by DCFH-DA, a radical sensitive indicator. After DCFH-DA was removed, the tested analogue was added to the cells at a final concentration of 0.2-200 μM. Oxidation was initiated by the addition of FeSO4 (0.16 μM) to the wells. The plates were incubated for 1 h at 37° C., during which the absorbance was read by a Tecan fluorometer at 485/530 nm.

[5] = tested on: cortical neurons; experiment: Neuroprotection of cultured cortical neurons exposed to FeSO4 or FeSO4/H2O2; type: cell-based
Method: FIGS. 10A-10B show the neuroprotective effect of ATP-γ-S and GDP-β-S (0.2-200 μM, t=24 h) as evaluated by MTT production in cortical neurons exposed for 24 h to either FeSO4 at final concentration of 3 μM (10A); or both FeSO4 (3 μM) and H2O2 (100 μM) (10B). The results shown are the mean±SEM of three independent experiments in quadruplicate.
Cultured cortical neurons in 96-well plates were treated with different concentrations of FeSO4, or hydrogen peroxide and FeSO4, for 24 h at 37° C. Following exposure to various insults, the cells were treated with ATP-γ-S and GDP-β-S as described. Cells were subsequently incubated for a further 18-24 h as indicated before being assessed for viability measures. Neurons were treated with ATP-γ-S and GDP-β-S at three concentrations ([…]) simultaneously with 1.5, 3 or 6 μM FeSO4 for 24 h. Following 24 h incubation in the presence of both FeSO4 and ATP-γ-S and GDP-β-S cell viability measures were assessed by XTT assay. All experiments were performed in triplicate.
FeSO4 induced a concentration-dependent decrease in cell viability as assessed by XTT assay and morphological assessment following 24 h of exposure (FIG. 9). The neuroprotective effect of ATP-γ-S and GDP-β-S (due to iron chelation) was evaluated in cortical neurons exposed to FeSO4 for 24 h (FIG. 10).

[6] = biological target: T1, Aβ42-Zn^2+ aggregates (Homo sapiens, UniProt P05067); experiment: Turbidity assay at 405 nm, Aβ42-Zn^2+ aggregates
T1 construct: Aggregation of monomeric Aβ42 was achieved by adding Zn(NO3)2 to a Aβ42 solution; purchased GL-Biochem (Shanghai)
T1 sequence (P05067 672-713 limits assumed): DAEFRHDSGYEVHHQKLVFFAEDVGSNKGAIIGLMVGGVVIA
Method: Aβ42 was weighted and dissolved in 10 mM NaOH, sonicated for 3 min and then freeze-dried. The freeze-dried Aβ42 was dissolved in 50 mM Tris-HCl (pH 7.4). The mixture was split and the pH of one of the samples was adjusted to 7.4 and the second sample to 6.6 by addition of 200 μM HCl. Two 300 μM Aβ42 mixtures were obtained. From these mixtures, controls and Aβ42-M^2+ aggregates were prepared by the addition of 1 mM Zn(NO3)2 or Cu(NO3)2 in DDW: 1. 200 μM Aβ42 (pH 7.4); 2. 200 μM Aβ42 (pH 6.6); 3.4×200 μM Aβ42-Zn^2+ (pH 7.4); 4.4×200 μM Aβ42-Cu^2+ (pH 6.6). The mixtures were left at RT for 2 h to form aggregates. 1 mM EDTA, ADP-β-S, and APCPP-γ-S in DDW were added to Aβ42-Zn^2+/Cu^2+ aggregates, then the mixtures were diluted with buffer to give the following mixtures: (i) 50 μM Aβ42-Cu^2+/Zn^2+; (ii) 50 μM Aβ42-Cu^2+/Zn^2+ containing 150 μM chelator (3 eq or) 300 μM chelator (6 eq) final volume 100 μl. The mixtures left at RT for 30 min before measurements, done in duplicate. 80 μl sample was taken for measurements in a quartz cuvette.
Aggregation of Aβ-metal ion complexes results in a turbid mixture that increases the light scattering in solution, leading to a higher absorbance at 405 nm (Storr et al., 2009).
Aggregation of monomeric Aβ42 was achieved by adding Zn(NO3)2 to a Aβ42 solution at pH 7.4, and Cu(NO3)2 to a Aβ42 solution at pH 6.6. […] The resultant Aβ42 mixtures were assayed for the resolubilization capacity of ADP-β-S and APCPP-γ-S in comparison to EDTA. […] At […] chelator, EDTA, ADP-β-S and APCPP-γ-S were almost equi-efficacious (FIG. 8B).

Molecule | stability [1] | viable cells ([2]; 1000 μM) [%] | IC90 [3] [µM] | less effective than EDTA by ([6]; 3 eq) [%] | less effective than EDTA by ([6]; 6 eq) [%] | other results
adenosine-5′-tetrathiobisphosphonate | completely stable even after two weeks |  |  |  |  | stability under basic conditions ([1]; pD=11, two weeks): highly stable
Nc1ncnc2c1ncn2[C@@H]1O[C@H](COP(O)(=S)OP(=O)(O)C(Cl)(Cl)P(=O)(O)O)[C@@H](O)[C@H]1O (single isomer, unassigned) [APPCCl2P-α-S, adenosine 5′-[Pα-thio]-β,γ-(dichloromethylene)triphosphate] |  | 75 |  |  |  | viable cells ([2]; 100 μM): 100%
Nc1ncnc2c1ncn2[C@@H]1O[C@H](COP(=O)(O)OP(O)(O)=S)[C@@H](O)[C@H]1O [ADP-β-S, adenosine 5′-[β-thio]diphosphate, reference compound] |  |  | 210 ± 1 | 63 | 27 | IC50 ([4]; PC12 cells, FeSO4 0.16 μM, 1 h, DCFH-DA): 26 µM; IC50 ([5]; Table 2, neuroprotection of primary neurons exposed to FeSO4, read-out: IC50): 1.2 ± 0.007 µM
di-adenosine-5′,5″-tetrathiobisphosphonate | identical to that of adenosine 5′-tetrathiobisphosphonate |  |  |  |  | stability under air-oxidizing conditions ([1]; open NMR tube, 3 days): highly stable
Nc1ncnc2c1ncn2[C@@H]1O[C@H](COP(=O)(O)CP(=O)(O)OP(O)(O)=S)[C@@H](O)[C@H]1O [APCPP-γ-S, adenosine 5′-[Pγ-thio]-α,β-methylenetriphosphate] |  | 75 | 211 ± 7 | 21 | 12 | IC50 ([4]; Rattus norvegicus, PC-12, 1 h): 0.16 µM; IC50 ([5]; Cortical neurone, read-out: IC50 protection from damage caused by FeSO4): 0.04 µM; reduction of cell viability ([2]; 1000 μM): 25%; not toxic up to (concentration) ([2]; 24 h): up to 100 μM
